Laboratory results: article PMC9331957, “Design and Validation of Nanofibers Made of Self-Assembled Peptides to Become Multifunctional Stimuli-Sensitive Nanovectors of Anticancer Drug Doxorubicin” (Pharmaceutics, 2022)

Key:
MDA-MB-231 cells = details: 1 h, 5 µM
Excerpt: To study the uptake of the nanofibers by cancer cells in vitro, the intrinsic fluorescence of the Doxo was followed by means of the confocal spectral imaging (CSI) technique. Briefly, the CSI consists in recording a full fluorescence spectrum from each point of a scanned optical section of the selected cell and then generating the maps (pseudo-color images) reflecting the distribution of spectral parameters (position, shape, width, intensity) in correlation with biochemical events (accumulation, interaction, metabolism, etc). The cells (SKBR3 or MDA-MB-435 cancer cell lines) were plated at a density of 5 × 10^4 cells/well onto cover glasses in 24-well plates for 1 or 6 h. […] They were analyzed under the 50× LWD objective (numerical aperture 0.75; Olympus, Tokyo, Japan) of a LabRam laser scanning confocal microspectrometer (Horiba SA, Villeneuve d’Ascq, Hauts De France, France) equipped with a 491 nm laser source (Cobolt Calypso™), an automated X–Y–Z scanning stage, a low dispersion grating (300 grooves/mm) and an air-cooled EM CCD detector. […] For fluorescence spectral images acquisition from living cells, the living cells were placed under a 50× microscope and scanned through their equatorial optical section (scanning step of 0.8 µm). The full fluorescence spectrum was recorded from each scanned point (typically 30 × 30 spectra per cell, 0.05 s per spectrum). […]

MDA-MB-231 = test: Cell proliferation assay (CellTiter-Glo, ATP luminescence); assay type: cell-based, human; details: MDA-MB-231, 72 h
Experimental: The cytotoxicity profiles of the NF-Doxo and NF-Doxo-SPION were established on cancer cell line MDA-MB-231 (triple negative human breast cancer). Triple MDA-MB-231 (ECACC, Salisbury, UK) cells were cultured at 37 °C in an atmosphere containing 5% CO2. The culture medium was made of DMEM supplemented with 10% fetal bovine serum, 1% non-essential amino acid (Hyclone Laboratories, Logan, UT, USA), and 1% penicillin/streptomycin (Gibco®, Life Technologies, Paisley, UK). The cell harvesting was made with trypsin/EDTA (0.05%) (Gibco®, Life Technologies, Paisley, UK) at 80% of confluence.
Cell viability and proliferation were studied, using a luminescent test based on quantification of ATP, using the CellTiter-Glo cell proliferation assay (Promega, Madison, WI, USA). Briefly, 3.000 MDA-MB-231 cells were incubated in 100 μL of medium in 96-well plates for 24 h and then treated with different samples. A H2O2 solution at 10 mM was used as positive control and the culture medium alone was tested as a negative control. Doxo (stock solution at 5.24 mM in PBS) was used as a reference. […] Cell viability was then determined using CellTiter-Glo reagent (Promega, Madison, WI, USA). […] The luminescence values were measured with a gain at 135, with an acquisition at 0.5 s, using a microplate reader (Bio-Tek® instruments, Inc., VT, Santa Clara, CA, USA). […]

IC50 ratio between NF-Doxo and free Doxo (times lower) (MDA-MB-231): 10 times
Compound: COc1cccc2c1C(=O)c1c(O)c3c(c(O)c1C2=O)C[C@@](O)(C(=O)CO)C[C@@H]3O[C@H]1C[C@H](N)[C@H](O)[C@H](C)O1 [Doxo, Doxorubicin]
fraction of intracellular fluorescence: cytosolic (MDA-MB-231 cells): 24.6
fraction of intracellular fluorescence: nuclear (MDA-MB-231 cells): 75.4
